Laboratory results from US20140096445A1, “METHOD OF CULTIVATION IN WATER DEFICIT CONDITIONS” (SYNGENTA PARTICIPATIONS AG, priority 2011, published 2014).
Marks after values point to notes of the source that are not given here.

What was measured:
Type in all cases: in vivo
corn [1] = assay: Greenhouse sub-surface chemigation, yield and root architecture under deficit water, Examples 20-23; conditions: for Yield (% difference from UTC) / Relative number of fine roots (% difference from UTC): sub-surface chemigation at V3/V4, maximum labeled rates, 50% plant-available water; for Relative number of fine roots (% difference from UTC): within 2 weeks of harvest; for Yield compared with the control, statistical statement: sub-surface chemigation, abiotic stress, P values <0.001 at the 95th percentile confidence interval
From the text: In this experiment, standardized growth conditions were applied across all corn treatments including: soil-water availability, soil texture and composition, soil chemical and physical properties, meteorological and environmental parameters, and plant nutrition in a greenhouse. No indication of plant disease or pest damage was observed over the course of the study and no pest management program was necessary. A homogeneous sand-organic matter soil mixture (0.18% organic matter) was used as the growth medium in 55-gal containers. These containers were used as a weighing lysimeter, where daily changes in system weight were used to calculate plant transpiration. Four corn plants were grown in each 55-gal container. Three 55-gal containers (12 plants total) made up each treatment. All irrigation and chemical treatments were applied via sub-surface irrigation. Chemical treatments consisted of: azoxystrobin (Quadris), paclobutrazol (Trimmit), trinexapac-ethyl (Moddus), and propiconazole (Tilt) at maximum labeled rates.
Corn plants were grown from seed and transplanted in the 55-gal drums approximately 14 days after planting. Uniform adequate irrigation was applied up to growth stage V3/V4 to ensure plant establishment. Chemical treatment applications were applied at growth stage V3/V4 via sub-surface chemigation. At stage V3/V4, irrigation was decreased to replicate deficit water conditions across all treatments for the remainder of the study period. Irrigation was managed daily to maintain 50% plant-available water. Visual signs of abiotic plant stress were observed approximately 30 days after chemical application. All corn plants were grown to yield and cobs were harvested when kernels were uniformly dry (15% moisture content). Root architecture, specifically relative number of fine roots, was measured at within 2 weeks of harvest using a digital imaging technique. Fine roots are related to water uptake productivity, which is directly tied to the ability of the plant to access soil-water under stress.

corn [2] = assay: SDI split plot field study, 113 day maturity corn hybrid, Examples 13-14; conditions: 50% irrigated deficit
Protocol: A randomized complete block (split plot) study using Subsurface Drip Irrigation (SDI) was conducted on a deep silt loam soil using a 113 day maturity corn hybrid. This trial was conducted to quantify the impact of treatments on grain yield and water productivity of corn under limited (deficit) and fully-irrigated setting. The study utilized a subsurface drip irrigation (SDI) system with a nominal dripline flowrate of 0.25 gpm/100 ft for a 5-ft dripline spacing and 24-inch emitter spacing, installed at a depth of 16-18 inches. Irrigation control panels, chemical injection pumps, and filters were housed at the irrigation well house to manage irrigation and chemigation events.
The field study was set up as a randomized complete plot design with three replications on silt loam soil.
Each plot was 8 rows wide (6.1 meters) by 15 meters long. Soil water status was monitored throughout the growing season using soil moisture sensors. Corn seed was planted with a precision planter at a depth of 2 inches and rows spaced at 30 inches. The planting population was 30,000 seeds per acre. Testing parameters, and irrigation levels were conducted according to the Kansas State University experimental procedure [see, e.g.,: (1) Lamm, F. R., A. J. Schlegel, and G. A. Clark. 2003. Development of a Best Management Practice for Nitrogen Fertigation of Corn Using SDI. Appl. Engr in Agric. and (2) Lamm, F. R., H. L. Manges, L. R. Stone, A. H. Khan, and D. H. Rogers. 1995. Water requirement of subsurface drip-irrigated corn in northwest Kansas. Trans. ASAE, 38(2):441-448.]. Moisture levels, irrigation levels, evapotranspiration, and plant health were measured throughout the growing season. Climatic variables were measured (air temperature, rainfall, solar and net radiation, relative humidity, rainfall, wind speed and direction) throughout the season.
Irrigation for the fully irrigated treatments was scheduled according to need by a climatic water budget using calculated evapotranspiration as a withdrawal and with rainfall and irrigation as deposits. Irrigation amounts for each event for the fully irrigated plots were generally 0.5 inches for each event. The deficit irrigation treatments were scheduled at approximately 50% of the fully irrigated plots (5.9 inches/acre vs. 13.55 inches of water/acre). Volumetric soil water content was measured in one-foot increments to a depth of 8 ft on an approximately weekly basis throughout the crop season to determine total water use. Crop water use was calculated as the sum of irrigation, precipitation and changes in soil water between the initial and final soil water sampling dates. Water productivity was calculated as the crop yield divided by the seasonal water use. Maintenance crop protection products were applied as needed to manage weeds and pests throughout the season for all treatments including the control. Moddus (trinexapac-ethyl) was foliar-applied (tractor mounted sprayer) twice at a rate of 250 gai/ha at approximately the V3+V7 stages of the corn. Azoxystrobin (Quadris) was applied twice via drip irrigation at a rate of 0.8 fl. oz/1000 linear ft (261 gai/ha) at approximately V6 & R1 stages of the corn. Crop yield from each replication was recorded after harvest and adjusted to 15% moisture content. Corn yield components of crop grain yield, plants/area, ears/plant, and kernel weight were measured by hand harvesting a representative sample (20 feet long for one crop row near the center of each subplot).

corn [3] = assay: SDI chemigation field study on grain yield under rainfed conditions, Examples 17-19; conditions: for Yield: optimum nitrogen rate 200 lbs. N/acre
Protocol: A chemigation study using Subsurface Drip Irrigation (SDI) was conducted to quantify the impact of treatment effects on grain yield under rainfed conditions. The field study was set up as a randomized complete plot design (split plot) with three replications on silt loam soil. Each plot was 8 rows wide (6.1 meters) by 34 meters long. Soil water status was monitored on an hourly basis every 30 cm up to 1.2 meters throughout the growing season using soil moisture sensors. Corn seed was planted with a precision planter at a depth of 2 inches and rows spaced at 30 inches. The planting population was 30,000 seeds per acre. Testing parameters and harvesting were conducted according to the University of Nebraska experimental procedure (see, e.g.,: Irmak, S, D. Z. Haman, and R. Bastug. Determination of Crop Water Stress Index for irrigation Timing and Yield Estimation of Corn. 2000. Agronomy Journal. 92:1221-1227). Moisture levels, evapotranspiration, and plant health were measured throughout the growing season. All microclimatic variables were measured (air temperature, rainfall, solar and net radiation, relative humidity, rainfall, wind speed and direction) so that the researcher could quantify the range of the microclimatic conditions under which this research was conducted to define the boundaries of experimental conditions.
No irrigation was applied to rainfed plots. […] Maintenance crop protection products were applied as needed to manage weeds and pests throughout the season for all treatments including the control. Azoxystrobin (Quadris) was applied twice via drip irrigation at a rate of 0.8 fl. oz/1000 linear ft (261 gai/ha) or by foliar application (tractor mounted sprayer) at 14 fl. oz./acre (261 gai/ha) at approximately the V6 & R1 stages of the corn. Moddus (trinexapac-ethyl) was foliar-applied (tractor mounted sprayer) once at a rate of 250 gai/ha at approximately the V7 stage of the corn. Crop yield from each replication was recorded after harvest and adjusted to 15.5% moisture content.

[4] = 250 gai/ha, foliar applied once (V7), 0% irrigated

SMILES	Yield (% difference from UTC) (corn [1])	Relative number of fine roots (% difference from UTC) (corn [1])	Yield compared with the control, statistical statement (corn [1])	Yield (corn [2]; 261 gai/ha, SDI chemigated twice (V6 & R1))	% Yield Increase by Product over Untr./50% irr. (corn [2]; 261 gai/ha, SDI chemigated)	% increase in Water Productivity by Product over 50% irr. (corn [2]; 261 gai/ha, SDI chemigated)	Water Prodctivity (IWUE) (corn [2]; 261 gai/ha, SDI chemigated)	Yield (corn [3]; 261 gai/ha, SDI chemigated (V6 & R1), 0% irrigated dryland/rainfed) [Bu./acre]	% Yield Increase by Product over Untr./0% irr. (corn [3]; 261 gai/ha, SDI chemigated, 0% irrigated dryland/rainfed)	Yield (corn [3]; 261 gai/ha, foliar applied (V6 & R1), 0% irrigated dryland/rainfed) [Bu./acre]	% Yield Increase by Product over Untr./0% irr. (corn [3]; 261 gai/ha, foliar applied, 0% irrigated dryland/rainfed)	Yield (corn [2]; 250 gai/ha, foliar-applied twice (V3+V7)) [Bu./acre]	% Yield Increase by Product over Untr./50% irr. (corn [2]; 250 gai/ha, foliar-applied)	Water Prodctivity (IWUE) (corn [2]; 250 gai/ha, foliar-applied)	% Yield Increase by Product over Untr./0% irr. (corn [3]; [4])	Yield (corn [3]; [4]) [Bu./acre]
CO/C=C(/C(=O)OC)c1ccccc1Oc1cc(Oc2ccccc2C#N)ncn1 [Azoxystrobin, azoxystrobin]	12.5† %	37.3† %	statistically different from the control	212^ Bu./acre	+16% Incr. over	+18% Incr.	426 pounds of corn per inch of water applied	145.4	+7% incr over Untr./0% irr.	151.1	+11% incr over Untr./0% irr.	–	–	–	–	–
CCOC(=O)C1CC(=O)C(=C(O)C2CC2)C(=O)C1 (stereo not shown) [TXP, trinexapac-ethyl]	15.6† %	34.3† %	statistically different from the control	–	–	–	–	–	–	–	–	235	+28% Incr. over	462 pounds of corn per inch of water applied	+4% incr over Untr./0% irr.	141.9
